The text below walks through data of PubChem BioAssay (NCI).

Each structure is given as a SMILES string. Values joined by “and” are separate entries in the source; they are usually repeats but may differ in a detail not shown here. Equal values may be shown once.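 Compound exposure: 48 hours, 5 concentrations, 96-well plates. At the GI50, growth is halved. TGI: concentration producing complete growth inhibition.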 A value given as a limit tells only on which side of the number the result lay.

Test systems include ACHN renal; HL-60(TB) leukemia; NCI-H460 lung; NCI-H522 lung; SK-MEL-28 melanoma; SN12C renal; T-47D breast; TK-10 renal; UACC-257 melanoma; UACC-62 melanoma.
Assay in all cases: inhibition of tumour cell growth, NCI panel, 48 h

For the molecule `N#CS.N=C=S.N=C=S.[Cu+2].[NH2-].[NH2-].[NH2-].[NH2-].c1ccc2ncccc2c1`, the GI50 is greater than 100 µM with ACHN renal; greater than 100 µM in the test on HL-60(TB) leukemia; 22.6 µM in the test on NCI-H460 lung; 44.8 µM in the test on NCI-H522 lung; greater than 100 µM with SK-MEL-28 melanoma; greater than 100 µM in the test with SN12C renal. The GI50 is greater than 100 µM in the test on T-47D breast, 90 µM in the test on TK-10 renal, greater than 100 µM in the test on UACC-257 melanoma and 19.4 µM in the test with UACC-62 melanoma. In addition, the TGI in the test on ACHN renal was greater than 100 µM; in the test with HL-60(TB) leukemia, greater than 100 µM; in the test on NCI-H460 lung it was 48.7 µM; in the test on NCI-H522 lung, greater than 100 µM; with SK-MEL-28 melanoma it was greater than 100 µM; in the test with SN12C renal, greater than 100 µM. The TGI with T-47D breast is greater than 100 µM; in the test on TK-10 renal it was greater than 100 µM; in the test on UACC-257 melanoma, greater than 100 µM; with UACC-62 melanoma it was 37 µM.
With `O=c1c2ccccc2c2ccccc2c(=O)n1Cc1ccc2c(c1)OCO2`, the TGI in the test with ACHN renal was greater than 100 µM; in the test with HL-60(TB) leukemia, 52 µM; in the test with NCI-H460 lung, greater than 100 µM; in the test on NCI-H522 lung it was greater than 100 µM; with SK-MEL-28 melanoma it was greater than 100 µM; in the test on SN12C renal it was greater than 100 µM. Besides, the TGI in the test with T-47D breast, with TK-10 renal, with UACC-257 melanoma and with UACC-62 melanoma was greater than 100 µM each time.
Regarding `c1ccc(CN=C(NCc2ccccc2)NCc2ccccc2)cc1`, the GI50 in the test with ACHN renal was 6.03 µM; with HL-60(TB) leukemia, 2.69 µM; in the test on NCI-H460 lung, 5.1 µM; in the test with NCI-H522 lung it was 8.35 µM; in the test on SK-MEL-28 melanoma, 14.8 µM; with SN12C renal, 6.92 µM. Moreover, the GI50 with T-47D breast is 4.7 µM; in the test on TK-10 renal, 10.7 µM; in the test with UACC-257 melanoma, 3.23 µM; with UACC-62 melanoma, 10.1 µM. Moreover, the TGI stood at 21.1 µM in the test with ACHN renal; 13.2 µM with HL-60(TB) leukemia; 19.5 µM with NCI-H460 lung; 21.3 µM in the test with NCI-H522 lung; 29.2 µM in the test with SK-MEL-28 melanoma; 24.1 µM in the test with SN12C renal. The TGI stood at 17 µM in the test with T-47D breast, 27.3 µM in the test with TK-10 renal, 11.1 µM with UACC-257 melanoma and 22.6 µM with UACC-62 melanoma.
In the case of `CCN(CC)CCNc1cc(-c2cccc(OC(F)(F)F)c2)nc2ccc(N3CCCC3)cc12`, the GI50 in the test on ACHN renal is 1.53 µM and 1.68 µM and 1.92 µM; in the test on HL-60(TB) leukemia, 1.66 µM and 0.714 µM and 2 µM; in the test on NCI-H460 lung it was 1.62 µM and 1.7 µM; in the test on NCI-H522 lung, 1.88 µM and 1.64 µM and 1.92 µM; in the test with SK-MEL-28 melanoma, 1.66 µM and 1.9 µM and 1.74 µM; in the test with SN12C renal it was 1.69 µM and 1.53 µM and 1.89 µM. The GI50 is 1.78 µM and 2.12 µM with T-47D breast; 2.06 µM and 1.87 µM and 2.31 µM in the test with TK-10 renal; 1.81 µM and 1.76 µM in the test on UACC-257 melanoma; 1.81 µM and 1.82 µM and 1.79 µM with UACC-62 melanoma. Further, the TGI is 2.9 µM and 3.28 µM and 3.93 µM with ACHN renal; 3.65 µM and 3.01 µM and 4.12 µM with HL-60(TB) leukemia; 3.27 µM and 3.47 µM in the test on NCI-H460 lung; 3.63 µM and 3.24 µM and 4 µM in the test with NCI-H522 lung; 3.16 µM and 3.38 µM and 3.17 µM with SK-MEL-28 melanoma; 3.37 µM and 2.98 µM and 3.86 µM in the test on SN12C renal. Besides, the TGI is 4.04 µM and 4.32 µM in the test on T-47D breast; 4.5 µM and 3.49 µM and 5.73 µM with TK-10 renal; 3.51 µM and 3.32 µM and 3.6 µM in the test on UACC-257 melanoma; 3.47 µM and 3.28 µM and 3.51 µM in the test with UACC-62 melanoma.
On to `CN(C)CCCNC(=O)c1cncnc1Nc1ccc(OCc2cccc(F)c2)c(Cl)c1`, for which the GI50 in the test with ACHN renal is 1.7 µM; in the test with HL-60(TB) leukemia it was 1.67 µM; with NCI-H460 lung it was 1.71 µM; with NCI-H522 lung, 2 µM; in the test on SK-MEL-28 melanoma, 1.79 µM; in the test with SN12C renal, 1.67 µM. The GI50 in the test with T-47D breast was 1.82 µM; in the test on TK-10 renal, 1.84 µM; in the test with UACC-257 melanoma it was 1.89 µM; in the test with UACC-62 melanoma, 1.82 µM. Moreover, the TGI in the test with ACHN renal came to 3.06 µM; with HL-60(TB) leukemia, 3.52 µM; with NCI-H460 lung, 3.13 µM; in the test on NCI-H522 lung, 3.86 µM; with SK-MEL-28 melanoma, 3.22 µM; in the test with SN12C renal, 3.14 µM. The TGI turned out to be 4.28 µM in the test with T-47D breast, 3.48 µM with TK-10 renal, 3.83 µM in the test on UACC-257 melanoma and 3.22 µM in the test on UACC-62 melanoma.
As for `COc1cc(-c2ncn(/C=C\C(=O)OC(C)C)n2)cc(C(F)(F)F)c1`, the GI50 in the test with ACHN renal is 0.0605 µM and 0.0657 µM; in the test with HL-60(TB) leukemia, 0.0515 µM and 0.051 µM; in the test with NCI-H460 lung, 0.0293 µM and 0.0327 µM; in the test on NCI-H522 lung, 0.0286 µM and 0.0535 µM; with SK-MEL-28 melanoma, 0.0461 µM and 0.0693 µM; in the test with SN12C renal it was 0.28 µM and 0.314 µM. Moreover, the GI50 was 0.12 µM and 0.0666 µM in the test with T-47D breast; 0.271 µM and 0.123 µM in the test with TK-10 renal; 0.142 µM and 0.136 µM in the test with UACC-257 melanoma; 0.112 µM and 0.114 µM in the test on UACC-62 melanoma. Further, the TGI in the test on ACHN renal is 12.9 µM and 13 µM; with HL-60(TB) leukemia, 4.58 µM and 4.07 µM; in the test on NCI-H460 lung, 11.1 µM and 1.4 µM; in the test with NCI-H522 lung, 0.734 µM and 0.597 µM; in the test with SK-MEL-28 melanoma, 2.24 µM and 8.58 µM; with SN12C renal, 11.7 µM and 11 µM. Moreover, the TGI is 15 µM and 12 µM in the test with T-47D breast; 6.91 µM and 5.42 µM with TK-10 renal; 11.8 µM and 14.4 µM with UACC-257 melanoma; 2 µM and 3.42 µM with UACC-62 melanoma.
As to `Cc1ccc(-c2nc(N3CCCNCC3)c3oc(-c4ccccc4)nc3n2)cc1`, the GI50 in the test with ACHN renal is 1.79 µM; with HL-60(TB) leukemia, 1.35 µM; with NCI-H460 lung, 1.85 µM; with NCI-H522 lung, 1.72 µM; in the test on SK-MEL-28 melanoma, 1.85 µM; in the test with SN12C renal, 1.69 µM. In addition, the GI50 in the test on T-47D breast is 2.02 µM; in the test on TK-10 renal, 1.8 µM; with UACC-257 melanoma, 1.96 µM; in the test on UACC-62 melanoma it was 1.71 µM. In addition, the TGI in the test on ACHN renal was determined as 3.22 µM; in the test on HL-60(TB) leukemia it was 3.17 µM; in the test with NCI-H460 lung, 3.5 µM; in the test on NCI-H522 lung, 3.29 µM; in the test with SK-MEL-28 melanoma, 3.39 µM; in the test on SN12C renal, 3.21 µM. The TGI with T-47D breast is 4 µM; with TK-10 renal it was 3.2 µM; in the test with UACC-257 melanoma, 3.48 µM; in the test on UACC-62 melanoma, 3.3 µM.
